# In ChEMBL document CHEMBL1201862, “PubChem BioAssay data set” (2004):
#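 96-well plates; 48 h exposure; 5 concentrations. Endpoints by linear interpolation between flanking doses. Not reached: highest tested concentration assigned. At the GI50, growth is halved.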 Calls of active or inactive are those of the source. Cut-off read from the data, not from the text of the source: active = GI50 up to about 1.1 µM and inactive = higher.
# Legend:
# Experiment in all cases: NCI-60 cell line screen, 48 h
# DLD-1 = test system: DLD-1
# DMS-114 = test system: DMS-114
# DMS-273 = test system: DMS-273
# KM-20L2 = test system: KM-20L2
# LXFL 529 = test system: LXFL 529
# SNB-78 = test system: SNB-78
# XF498 = test system: XF498
# HOP-18 = test system: HOP-18
# RXF 631 = test system: RXF 631
Compound,GI50 (DLD-1),GI50 (DMS-114),GI50 (DMS-273),GI50 (KM-20L2),GI50 (LXFL 529),GI50 (SNB-78),GI50 (XF498),GI50 (HOP-18),GI50 (RXF 631)
Cc1cc(C)nc(NS(=O)(=O)c2ccc(NC(=O)c3cccc4c(N)c5ccccc5nc34)cc2)n1,> 100 µM (inactive),> 100 µM (inactive),> 100 µM (inactive),88.7 µM (inactive),> 100 µM (inactive),> 100 µM (inactive),> 100 µM (inactive),,
CCN(CC)CCOC(=O)/C(=C/c1ccc(OC)cc1)c1cc(OC)c(OC)c(OC)c1,28.1 µM (inactive),4.81 µM (inactive),4.29 µM (inactive),11.9 µM (inactive),5.45 µM (inactive),9.98 µM (inactive),,30.4 µM (inactive),7.66 µM (inactive)
Clc1ccccc1C(n1cc(Br)cn1)n1cc(Br)cn1,18.6 µM (inactive),21.4 µM (inactive),17.8 µM (inactive),,95.7 µM (inactive),> 100 µM (inactive),17.5 µM (inactive),,> 10 µM (inactive)
CC(=O)O[C@]1(C)OC(=O)[C@@H](C)N1[N+](=O)[O-],> 100 µM (inactive),> 100 µM (inactive),96.6 µM (inactive),> 100 µM (inactive),> 100 µM (inactive),> 100 µM (inactive),< 0.01 µM (active),> 100 µM (inactive),
CC(=O)Nc1ccc2c(c1)C(=O)c1ccccc1-2,> 100 µM (inactive),> 100 µM (inactive),> 100 µM (inactive),> 100 µM (inactive),> 100 µM (inactive),> 100 µM (inactive),,,
CC(=O)C1CC=C(C)CC1 (stereo unspecified),> 100 µM (inactive),> 100 µM (inactive),> 100 µM (inactive),> 100 µM (inactive),> 100 µM (inactive),> 100 µM (inactive),> 100 µM (inactive),> 100 µM (inactive),> 100 µM (inactive)
O=C(Nc1ccc(Cl)cc1Cl)C(=O)C(C(=O)c1ccc2ccccc2c1)C1OC(=O)c2ccccc21 (stereo unspecified),10.7 µM (inactive),11.1 µM (inactive),,,3.33 µM (inactive),3.33 µM (inactive),,,
COc1cc2c(cc1OC)C(C(=O)O)C(c1ccccc1)N(C)C2=O (stereo unspecified),> 100 µM (inactive),> 100 µM (inactive),,> 100 µM (inactive),> 100 µM (inactive),> 100 µM (inactive),> 100 µM (inactive),> 100 µM (inactive),
CC(=O)OCC1OC(OCc2ccccc2)C(Br)C(OC(C)=O)C1OC(C)=O (stereo unspecified),> 100 µM (inactive),,> 100 µM (inactive),> 100 µM (inactive),> 100 µM (inactive),> 100 µM (inactive),> 100 µM (inactive),> 100 µM (inactive),> 100 µM (inactive)
NCCOc1ccc(/C(=C(/Cl)c2ccccc2)c2ccccc2)cc1,15.6 µM (inactive),12.9 µM (inactive),10.6 µM (inactive),6.62 µM (inactive),7.1 µM (inactive),10 µM (inactive),5.6 µM (inactive),,11.4 µM (inactive)
O=C(Nc1ccc(Nc2ccc(NC(=O)c3ccccc3)c3c2C(=O)c2ccccc2C3=O)c2c1C(=O)c1ccccc1C2=O)c1ccccc1,> 100 µM (inactive),> 100 µM (inactive),> 100 µM (inactive),> 100 µM (inactive),> 100 µM (inactive),> 100 µM (inactive),,> 100 µM (inactive),> 100 µM (inactive)
O=C(Nc1ccc(Cl)cc1)NS(=O)(=O)c1ccc2c(c1)CCC2 [SULOFENUR],44.4 µM (inactive),35.2 µM (inactive),32.4 µM (inactive),37.8 µM (inactive),31.5 µM (inactive),> 47 µM (inactive),34.1 µM (inactive),42.8 µM (inactive),
O=C(Nc1nc2ccc([N+](=O)[O-])cc2s1)C(=O)C(C(=O)c1ccncc1)C1OC(=O)c2ccccc21 (stereo unspecified),> 100 µM (inactive),> 100 µM (inactive),> 100 µM (inactive),> 100 µM (inactive),> 100 µM (inactive),> 100 µM (inactive),> 100 µM (inactive),42.7 µM (inactive),> 100 µM (inactive)
Cc1c(/C=N/NC(=O)c2ccc(Cl)cc2)c(=O)n(-c2ccccc2)n1C,> 100 µM (inactive),> 100 µM (inactive),> 100 µM (inactive),> 100 µM (inactive),> 100 µM (inactive),> 100 µM (inactive),,> 100 µM (inactive),
Cc1cccc(NC(=O)CC#N)c1Cl,> 100 µM (inactive),,> 100 µM (inactive),> 100 µM (inactive),> 100 µM (inactive),> 100 µM (inactive),> 100 µM (inactive),,
O=C1C=CC(=O)C2C1Cc1ccccc1C2c1ccccc1 (stereo unspecified),56.2 µM (inactive),22.2 µM (inactive),58.6 µM (inactive),50 µM (inactive),17.3 µM (inactive),,,53.6 µM (inactive),
CC1=C(C(=O)Nc2ccccc2C)C(c2ccc([N+](=O)[O-])cc2)C(C(=O)Nc2ccccc2C)=C(C)N1,50 µM (inactive),33.3 µM (inactive),43.4 µM (inactive),51.9 µM (inactive),35.6 µM (inactive),,40.3 µM (inactive),55.2 µM (inactive),76.6 µM (inactive)
Cc1ccc(S(=O)(=O)CC(=O)CC(=O)C(=O)Nc2cccc(C(F)(F)F)c2)cc1,> 100 µM (inactive),,> 100 µM (inactive),> 100 µM (inactive),> 100 µM (inactive),> 100 µM (inactive),> 100 µM (inactive),,> 100 µM (inactive)
COc1ccc(S(=O)(=O)N/N=C\c2cc([N+](=O)[O-])cc(I)c2O)c(OC)c1OC,28.8 µM (inactive),25.1 µM (inactive),32.4 µM (inactive),36.2 µM (inactive),> 10 µM (inactive),28.6 µM (inactive),20.7 µM (inactive),23.3 µM (inactive),
CCN(CC)CCCCC1CCN(CC(=O)N2CC(C)C(=O)Nc3ccccc32)CC1 (stereo unspecified),> 100 µM (inactive),> 100 µM (inactive),> 100 µM (inactive),> 100 µM (inactive),> 100 µM (inactive),,,> 100 µM (inactive),
COC(=O)C(C)(C)/N=C/N(C)C,> 100 µM (inactive),> 100 µM (inactive),> 100 µM (inactive),> 100 µM (inactive),> 100 µM (inactive),> 100 µM (inactive),> 100 µM (inactive),> 100 µM (inactive),> 100 µM (inactive)
O=C(/C=C/c1ccc(O)c(O)c1)c1ccc(O)cc1O [BUTEIN],13.9 µM (inactive),2.47 µM (inactive),10.6 µM (inactive),17.1 µM (inactive),,20.8 µM (inactive),,,
COC(=O)C1=C(c2ccc3c(c2)OCO3)O[C@H](c2cc(OC)c(OC)c(OC)c2)[C@H]1COC(C)=O,7.19 µM (inactive),1.15 µM (inactive),2.64 µM (inactive),2.14 µM (inactive),2.94 µM (inactive),8.49 µM (inactive),4.25 µM (inactive),15.2 µM (inactive),
CC(C)NC(=O)OCc1c(COC(=O)NC(C)C)c(-c2ccc(Cl)c(Cl)c2)n2c1CCC2,> 51.5 µM (inactive),33.7 µM (inactive),> 49.2 µM (inactive),35.1 µM (inactive),3.6 µM (inactive),21.2 µM (inactive),45.7 µM (inactive),> 61.2 µM (inactive),
COc1cccc(/C=C2\CCC(CN(C)C)C2=O)c1 (stereo unspecified),2.8 µM (inactive),13.9 µM (inactive),12.2 µM (inactive),15.8 µM (inactive),2.5 µM (inactive),21.7 µM (inactive),18.9 µM (inactive),18.6 µM (inactive),6.59 µM (inactive)
CCOC(=O)C1=C(C)N(c2ccccc2)C2=C(C(=O)N(c3ccccc3)C2c2ccccc2)C1c1ccccc1 (stereo unspecified),> 100 µM (inactive),> 100 µM (inactive),> 100 µM (inactive),> 100 µM (inactive),> 100 µM (inactive),> 100 µM (inactive),> 100 µM (inactive),> 100 µM (inactive),> 100 µM (inactive)
CCOC1(COP(=O)(OCc2ccccc2)OCc2ccccc2)COC(COP(=O)(OCc2ccccc2)OCc2ccccc2)(OCC)CO1 (stereo unspecified),> 100 µM (inactive),,> 100 µM (inactive),> 100 µM (inactive),> 100 µM (inactive),> 100 µM (inactive),> 100 µM (inactive),> 100 µM (inactive),9.44 µM (inactive)
